The results in this text go back to ChEMBL document CHEMBL3734672, “Synthesis, cyclooxygenase inhibition, anti-inflammatory evaluation and ulcerogenic liability of novel triarylpyrazoline derivatives as selective COX-2 inhibitors” (Bioorg Med Chem Lett, 2015).

Usually IC50 stands for the point on the concentration scale where inhibition reaches its midpoint. As a reminder, the inhibition in vivo is the share of the control response that was lost under treatment.

In data set [1] the target is T1, Prostaglandin G/H synthase 2 (Homo sapiens, UniProt P35354).
T1 sequence (P35354 whole entry): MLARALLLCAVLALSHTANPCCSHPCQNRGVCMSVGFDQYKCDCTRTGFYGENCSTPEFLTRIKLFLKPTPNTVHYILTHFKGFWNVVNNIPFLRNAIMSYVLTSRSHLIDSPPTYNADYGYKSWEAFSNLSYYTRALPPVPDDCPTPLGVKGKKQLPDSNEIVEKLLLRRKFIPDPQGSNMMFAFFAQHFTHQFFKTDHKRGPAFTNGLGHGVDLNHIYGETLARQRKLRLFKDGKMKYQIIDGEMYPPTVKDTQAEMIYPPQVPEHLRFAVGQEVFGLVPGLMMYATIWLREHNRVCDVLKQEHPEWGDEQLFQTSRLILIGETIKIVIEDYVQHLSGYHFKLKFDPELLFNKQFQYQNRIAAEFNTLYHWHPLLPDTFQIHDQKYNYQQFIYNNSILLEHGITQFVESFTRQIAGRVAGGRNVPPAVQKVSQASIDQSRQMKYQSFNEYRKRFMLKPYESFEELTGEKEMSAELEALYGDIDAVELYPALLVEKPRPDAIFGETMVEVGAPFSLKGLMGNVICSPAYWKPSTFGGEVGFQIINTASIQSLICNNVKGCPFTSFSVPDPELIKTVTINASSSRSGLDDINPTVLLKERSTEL
In words: Inhibition of human recombinant COX-2 preincubated for 2 mins prior to arachidonic acid addition by enzyme immuno assay.

The nature of data set [2]: Selectivity index, ratio of IC50 for ovine COX-1 to IC50 for human recombinant COX-2.
Data set [3] has as its target T2, Prostaglandin G/H synthase 1 (Ovis aries, UniProt P05979).
T2 sequence (P05979 whole entry): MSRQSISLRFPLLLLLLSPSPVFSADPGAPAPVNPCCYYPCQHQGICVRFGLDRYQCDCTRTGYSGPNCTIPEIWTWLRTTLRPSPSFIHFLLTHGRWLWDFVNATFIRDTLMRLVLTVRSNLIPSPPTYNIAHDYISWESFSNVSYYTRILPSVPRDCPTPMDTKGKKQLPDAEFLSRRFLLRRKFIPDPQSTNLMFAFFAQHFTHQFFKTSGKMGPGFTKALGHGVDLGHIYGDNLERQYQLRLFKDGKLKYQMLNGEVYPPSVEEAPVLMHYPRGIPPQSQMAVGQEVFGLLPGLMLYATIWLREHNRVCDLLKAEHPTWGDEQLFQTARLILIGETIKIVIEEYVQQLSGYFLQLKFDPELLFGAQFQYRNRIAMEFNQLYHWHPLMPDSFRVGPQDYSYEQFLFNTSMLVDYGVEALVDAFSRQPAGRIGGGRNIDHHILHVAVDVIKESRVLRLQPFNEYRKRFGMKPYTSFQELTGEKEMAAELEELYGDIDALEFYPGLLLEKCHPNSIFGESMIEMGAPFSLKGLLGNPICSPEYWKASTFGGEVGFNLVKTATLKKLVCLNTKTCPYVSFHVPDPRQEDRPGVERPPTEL
Nature of the data set: Inhibition of ovine COX-1 preincubated for 2 mins prior to arachidonic acid addition by enzyme immuno assay.

Data set [4] relates to Rattus norvegicus. Nature of the data set: Antiinflammatory activity in rat assessed as inhibition of carrageenan-induced paw edema at 50 mg/kg, po measured after 3hrs post carrageenan challenge. The data set is classed as functional. On the technique in general: The carrageenan paw model is a standard test of acute inflammation.
Data set [5] has as its system Rattus norvegicus. Nature of the data set: Gastrointestinal toxicity in rat assessed as ulcer incidence at 100 mg/kg. Type of data set: organism-based. The following applies: in vivo.
The subject of data set [6] is Rattus norvegicus. In words: Ulcerogenic activity in rat assessed as ulcer index at 100 mg/kg. Type of data set: toxicity, organism-based. As to conditions: in vivo.

In the case of `CS(=O)(=O)c1ccc(C2=NN(c3ccc(S(N)(=O)=O)cc3)C(c3ccccc3)C2)cc1` (stereo not given), the half-inhibitory concentration (IC50) came out at 1.62 µM in data set [1] and 5.4 µM in data set [3]. Further, the Ratio IC50 in data set [2] came out at 3.33. For the same compound, the inhibition in vivo at 50 mg/kg with Rattus norvegicus [4] turned out to be 54.3%.
Consider `CS(=O)(=O)c1ccc(C2=NN(c3ccc(S(N)(=O)=O)cc3)C(c3cccs3)C2)cc1` (stereo not given), for which the IC50 in data set [1] is 1.75 µM; in data set [3] it was 6.4 µM. The Ratio IC50 in data set [2] was 3.71. In the data set with Rattus norvegicus [4], the inhibition in vivo at 50 mg/kg is 36.4%.
As to `CS(=O)(=O)c1ccc(C2=NN(c3ccc(C(=O)O)cc3)C(c3ccc(Cl)cc3)C2)cc1` (stereo not given), the IC50 came to 3.98 µM in data set [1] and 11.4 µM in data set [3]. Also, the Ratio IC50 in data set [2] is 2.91. Besides, the inhibition in vivo at 50 mg/kg in the data set with Rattus norvegicus [4] stood at 50.4%.
Regarding `CS(=O)(=O)c1ccc(C2=NN(c3ccc(S(N)(=O)=O)cc3)C(c3ccc(F)cc3)C2)cc1` (stereo not given), the IC50 was 3.41 µM in data set [1] and 9.7 µM in data set [3]. For the same compound, the Activity in the data set on Rattus norvegicus [5] amounted to 6%. Moreover, the UI in the data set with Rattus norvegicus [6] is listed as 7.7. Also, the Ratio IC50 in data set [2] was found to be 2.91. The inhibition in vivo at 50 mg/kg in the data set on Rattus norvegicus [4] turned out to be 65.7%.
Turning to `COc1cccc(C2CC(c3ccc(S(C)(=O)=O)cc3)=NN2c2ccc(C(=O)O)cc2)c1` (stereo not given), the concentration for half-maximal inhibition (IC50) in data set [1] amounted to 4.71 µM; in data set [3] it was 10.1 µM. The Ratio IC50 in data set [2] amounted to 2.21. Further, in the data set on Rattus norvegicus [4], the inhibition in vivo at 50 mg/kg amounted to 31.3%.
Take `COc1ccc2c(c1)c(CC(=O)O)c(C)n2C(=O)c1ccc(Cl)cc1` [INDOMETHACIN]: the Activity with Rattus norvegicus [5] was 8.3%. For the same compound, the UI with Rattus norvegicus [6] is on record as 12.3.
As to `CS(=O)(=O)c1ccc(C2=NN(c3ccc(C(=O)O)cc3)C(c3ccccc3)C2)cc1` (stereo not given), the IC50 was found to be 0.98 µM in data set [1] and 4.9 µM in data set [3]. Moreover, the Ratio IC50 in data set [2] is 5. Moreover, in the data set on Rattus norvegicus [4], the inhibition in vivo at 50 mg/kg was 56.4%.
For `COc1cccc(C2CC(c3ccc(S(C)(=O)=O)cc3)=NN2c2ccc(S(N)(=O)=O)cc2)c1` (stereo not given) the same measures were 1.76 µM, 7.1 µM, 4.11 and 38.3%.
For `CS(=O)(=O)c1ccc(C2=NN(c3ccc(S(N)(=O)=O)cc3)C(c3ccc(Cl)cc3)C2)cc1` (stereo not given) the same measures were 2.67 µM, 8.3 µM, 3.11 and 42.4%.
Regarding `COc1cc(C2CC(c3ccc(S(C)(=O)=O)cc3)=NN2c2ccc(S(N)(=O)=O)cc2)cc(OC)c1OC` (stereo not given), the results for the IC50 in data set [1] and in data set [3] were 4.67 µM and 12.3 µM, respectively. In addition, in the data set on Rattus norvegicus [5], the Activity was found to be 5%. Also, the UI in the data set with Rattus norvegicus [6] is listed as 5.92. Further, the Ratio IC50 in data set [2] came out at 2.63. For the same compound, the inhibition in vivo at 50 mg/kg in the data set on Rattus norvegicus [4] worked out at 73.7%.
Take `COc1ccc(C2CC(c3ccc(S(C)(=O)=O)cc3)=NN2c2ccc(S(N)(=O)=O)cc2)cc1OC` (stereo not given): the IC50 in data set [1] is 1.98 µM; in data set [3] it was 8.7 µM. In addition, the Ratio IC50 in data set [2] came out at 4.41. The inhibition in vivo at 50 mg/kg with Rattus norvegicus [4] turned out to be 45.5%.
For `COc1ccc(C2CC(c3ccc(S(C)(=O)=O)cc3)=NN2c2ccc(C(=O)O)cc2)cc1` (stereo not given) the same measures were 2.17 µM, 6.6 µM, 3.11 and 55.4%.
Turning to `Cc1ccc(-c2cc(C(F)(F)F)nn2-c2ccc(S(N)(=O)=O)cc2)cc1` [CELECOXIB], the Activity in the data set on Rattus norvegicus [5] stood at 4.2%. The UI in the data set with Rattus norvegicus [6] amounted to 4.85. For the same compound, in the data set on Rattus norvegicus [4], the inhibition in vivo at 50 mg/kg came to 65.3%.
As for `COc1cc(C2CC(c3ccc(S(C)(=O)=O)cc3)=NN2c2ccc(C(=O)O)cc2)cc(OC)c1OC` (stereo not given), the IC50 in data set [1] came to 5.94 µM; in data set [3], 13.4 µM. Moreover, the Activity in the data set with Rattus norvegicus [5] came to 5.5%. Also, in the data set with Rattus norvegicus [6], the UI is reported as 6.85. Moreover, in data set [2], the Ratio IC50 turned out to be 2.51. In addition, the inhibition in vivo at 50 mg/kg in the data set with Rattus norvegicus [4] worked out at 66.2%.
As to `CS(=O)(=O)c1ccc(C2=NN(c3ccc(C(=O)O)cc3)C(c3ccc(F)cc3)C2)cc1` (stereo not given), the IC50 in data set [1] turned out to be 2.84 µM; in data set [3] it was 9.7 µM. For the same compound, the Ratio IC50 in data set [2] worked out at 3.42. Moreover, in the data set on Rattus norvegicus [4], the inhibition in vivo at 50 mg/kg was determined as 42.3%.
As to `COc1ccc(C2CC(c3ccc(S(C)(=O)=O)cc3)=NN2c2ccc(S(N)(=O)=O)cc2)cc1` (stereo not given), the IC50 is 2.11 µM in data set [1] and 6.5 µM in data set [3]. Also, the Ratio IC50 in data set [2] was found to be 3.1. Moreover, the inhibition in vivo at 50 mg/kg in the data set on Rattus norvegicus [4] was 42.4%.
For `CS(=O)(=O)c1ccc(C2=NN(c3ccc(C(=O)O)cc3)C(c3cccs3)C2)cc1` (stereo not given) the same measures were 1.16 µM, 4.7 µM, 4.11 and 35.6%.
For `COc1ccc(C2CC(c3ccc(S(C)(=O)=O)cc3)=NN2c2ccc(C(=O)O)cc2)cc1OC` (stereo not given) the same measures were 3.74 µM, 9.7 µM, 2.61 and 6.11%.
